The values that follow come from patent publication US5565441A, “Phosphonoacetic esters and acids as anti-inflammatories” (The Upjohn Company, priority 1995, dated 1996).

Molecules are shown by their SMILES.

One experiment has as its system DTH granuloma (DTH GRA) lesion in mBSA-sensitized mice. Kind of experiment: Delayed Type Hypersensitivity Granuloma Assay (DTH GRA) model for inflammation. The class given is in vivo, mouse. The note with it: 10 MPK, PO; mBSA-sensitized mice, mBSA-soaked filter excised after nine days. The source says:
The Formula I compounds of this invention have been tested in a Delayed Type Hypersensitivity Granuloma Assay (DTH GRA) model for inflammation. This assay is described by Dunn, C. J. et al., "Development of a delayed-type hypersensitivity granuloma model in the mouse for the study of chronic immune-mediated inflammatory disease," Agents and Actions, 27, 3/4 (1989) and "Murine Delayed-Type Hypersensitivity Granuloma," Int. J. Immunopharmc., 12, 8, 899-904 (1990).
Briefly, mBSA-sensitized mice have a DTH granuloma (DTH GRA) lesion induced by subcutaneously implanting a mBSA-soaked filter which is excised after nine days. Compounds are administered to the mice to determine their effect on the lesions. The results are recorded as percent inhibition. […] Inhibition of 10 to 20% is considered to indicate anti-granuloma activity. Greater than 30% inhibition is good activity.
Turning to `CCOC(=O)C1=NNC(C(=O)OC)(P(=O)(OC)OC)C1` (stereo not drawn) [Compound 8, 1H-Pyrazole-5-carboxylic-acid, 3-carboethoxy-5-(dimethoxyphosphinyl)-4,5-dihydro, methyl ester], the “% Inhibition (DTH granuloma)” value worked out at 59%.

Staying with this experiment, now noted: Mus musculus, 216 h; 10 MPK, PO; mBSA-sensitized mice, mBSA-soaked filter excised after nine days; read-out: % Inhibition (DTH granuloma).
As for `COC(=O)C(CCC(=O)c1cccnc1)P(=O)(OC)OC` (stereo not drawn) [Compound 4, 3-Pyridinepentanoic acid, α-(dimethoxyphosphinyl)-δ-oxo-, methyl ester], the inhibition in vivo at 10 mg/kg turned out to be 37%.
On to `CCOC(=O)C(CC(C(=O)c1ccccc1)c1ccccc1)P(=O)(OCC)OCC` (stereo not drawn) [Compound 3, Benzenepentanoic acid, α-(diethoxyphosphinyl)-δ-oxo-γ-phenyl-, ethyl ester], for which the inhibition in vivo at 10 mg/kg was determined as 21%.
`COC(=O)C1(P(=O)(OC)OC)CC1C(=O)c1ccccc1` (stereo not drawn) [Compound 10, Cyclopropanecarboxylic acid, 2-benzoyl-1-(dimethoxyphosphinyl)-, methyl ester]: the inhibition in vivo at 10 mg/kg was found to be 47%.
With `COC(=O)C(CCc1cc(C)nc2c(C#N)c(C)nn12)P(=O)(OC)OC` (stereo not drawn) [Compound 7, Pyrazolo(1,5-a)pyrimidine-7-butanoic acid, 3-cyano-α-(dimethoxyphosphinyl)-2,5-dimethyl-, methyl ester], the inhibition in vivo at 10 mg/kg was found to be 38%.
Consider `COC(=O)C1(P(=O)(OC)OC)CC(C(=O)c2ccccc2)=NN1` (stereo not drawn) [Compound 9, 1H-Pyrazole-5-carboxylic acid, 3-benzoyl-5-(dimethoxyphosphinyl)-4,5-dihydro-, methyl ester], for which the inhibition in vivo at 10 mg/kg was determined as 37%.
In the case of `COP(=O)(OC)C(CCc1nc(-c2ccccc2)cc(=O)n1C)C(=O)OC(C)(C)C` (stereo not drawn) [Compound 15, 2-Pyrimidine butanoic acid, α-(dimethoxyphosphinyl)-1,6-dihydro-1-methyl-6-oxo-4-phenyl, dimethylethyl ester], the inhibition in vivo at 10 mg/kg came to 21%.
Turning to `COC(=O)C(CCc1nc(-c2ccccc2)cc(=O)n1C)P(=O)(O)O` (stereo not drawn) [Compound 6b], the inhibition in vivo at 10 mg/kg came out at 37%.
Take `COC(=O)C(CCc1nc(-c2ccccc2)cc(=O)n1C)P(=O)(OC)OC` (stereo not drawn) [Compound 6a, 2-Pyrimidinebutanoic acid, α-(dimethoxyphosphinyl)-1,6-dihydro-1-methyl-6-oxo-4-phenyl-, methyl ester]: the inhibition in vivo at 10 mg/kg turned out to be 51%.
As for `COC(=O)C(CCC(=O)c1cccc(F)c1)P(=O)(OC)OC` (stereo not drawn) [Compound 2, Benzenepentanoic acid, α-(dimethoxyphosphinyl)-3-fluoro-δ-oxo-,methyl ester], the inhibition in vivo at 10 mg/kg is 26%.

Still in this experiment, the particulars now being: Mus musculus, 216 h; at 50 MPK, PO; mBSA-sensitized mice, mBSA-soaked filter excised after nine days.
As to `CCOC(=O)C(CCC(=O)c1ccccc1)P(=O)(OCC)OCC` (stereo not drawn) [Compound 1, Benzenepentanoic acid, α-(diethoxyphosphinyl)-δ-oxo-, ethyl ester], the inhibition in vivo at 50 mg/kg turned out to be 37%.

Staying with this experiment, now noted: Mus musculus, po, 216 h, read-out: % Inhibition (DTH granuloma).
As for `COC(=O)C1(P(=O)(OC)OC)CN1N1C(=O)c2ccccc2C1=O` (stereo not drawn) [Compound 11, 2-Aziridinecarboxylic acid, 1-(1,3-dihydro-1,3-dioxo-2H-isoindol-2-yl)-2-(dimethoxyphosphinyl)-, methyl ester], the inhibition in vivo at 10 mg/kg came out at 42%.
